According to PubChem BioAssay (NCI):
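All cell lines were grown in 96-well plates and treated with compound for 48 hours. TGI: total growth inhibition.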

Experiments:
Experiment in all cases: DTP human tumour cell line panel, 48 h
HOP-62 NSCLC = tested on: HOP-62 NSCLC
UACC-257 melanoma = tested on: UACC-257 melanoma
UACC-62 melanoma = tested on: UACC-62 melanoma
SK-MEL-2 melanoma = tested on: SK-MEL-2 melanoma
MALME-3M melanoma = tested on: MALME-3M melanoma
SNB-75 CNS = tested on: SNB-75 CNS
NCI-H226 lung = tested on: NCI-H226 lung
DU-145 prostate = tested on: DU-145 prostate
SK-OV-3 ovarian = tested on: SK-OV-3 ovarian
OVCAR-8 ovarian = tested on: OVCAR-8 ovarian
PC-3 prostate = tested on: PC-3 prostate
SNB-19 CNS = tested on: SNB-19 CNS
CAKI-1 renal = tested on: CAKI-1 renal
OVCAR-5 ovarian = tested on: OVCAR-5 ovarian
HT29 colon = tested on: HT29 colon
NCI-H23 lung = tested on: NCI-H23 lung
COLO 205 colon = tested on: COLO 205 colon
TK-10 renal = tested on: TK-10 renal
SF-539 CNS = tested on: SF-539 CNS

Row | Structure (SMILES) | TGI (HOP-62 NSCLC) | TGI (UACC-257 melanoma) | TGI (UACC-62 melanoma) | TGI (SK-MEL-2 melanoma) | TGI (MALME-3M melanoma) | TGI (SNB-75 CNS) | TGI (NCI-H226 lung) | TGI (DU-145 prostate) | TGI (SK-OV-3 ovarian) | TGI (OVCAR-8 ovarian) | TGI (PC-3 prostate) | TGI (SNB-19 CNS) | TGI (CAKI-1 renal) | TGI (OVCAR-5 ovarian) | TGI (HT29 colon) | TGI (NCI-H23 lung) | TGI (COLO 205 colon) | TGI (TK-10 renal) | TGI (SF-539 CNS)
1 | CCOC(=O)N1CCN(c2nc(C)n(-c3ccccc3)c(=S)c2C#N)CC1 | > 100 µM | > 100 µM | > 100 µM | > 100 µM | > 100 µM | > 79.7 µM | > 100 µM | > 100 µM | > 100 µM | > 100 µM | > 100 µM | > 100 µM | > 100 µM | > 100 µM | > 100 µM | > 100 µM | > 100 µM | > 100 µM | > 100 µM
2 | O=C1N=NC(=O)N1c1cc(C(F)(F)F)cc(C(F)(F)F)c1 | 15 µM | 12.2 µM | 18.3 µM | 5.57 µM | 14.2 µM | 11.7 µM | 12.4 µM | > 40 µM | 16.2 µM | 13.7 µM | 12.8 µM | > 40.8 µM | 10.2 µM | 30.5 µM | 8.1 µM | 6.48 µM | 3.35 µM | > 42.8 µM | 20.7 µM
3 | CSc1ccc(-c2cc(-c3nc4ccccc4[nH]3)nc(N)c2C#N)cc1 | 42.1 µM | 39.4 µM | 26 µM | 34.2 µM | 44.5 µM | 57.8 µM | 79.5 µM | 66.9 µM | > 100 µM | > 100 µM | 98.7 µM | > 100 µM | 54.4 µM | 75.2 µM | 56.7 µM | 99.5 µM | 34.7 µM | 99.7 µM | 86 µM
4 | CNCCCNC1(c2cc3ccccc3s2)CCCCC1 | 22.4 µM | 3.35 µM | 3.87 µM | 10.9 µM | 4.57 µM | 19.5 µM | 36.6 µM | 24.2 µM | 29.1 µM | 28.4 µM | 21.5 µM | 24.8 µM | 22.1 µM | 27.5 µM | 7.94 µM | 30.6 µM | 3.8 µM | 19.4 µM | 7.37 µM
5 | Cn1c(=O)cc(N=Nc2ccc(Cl)c(Cl)c2)[nH]c1=O | > 100 µM | 65.9 µM | > 100 µM | 45.2 µM | 32.6 µM | > 100 µM | > 100 µM | > 100 µM | > 100 µM | 53 µM | 56.1 µM | > 100 µM | 28.5 µM | > 100 µM | 38.6 µM | 86.5 µM | 60.5 µM | 47.9 µM | > 100 µM
6 | COc1ccc2oc(=O)c(-c3nc4ccccc4o3)cc2c1 | > 100 µM | > 100 µM | > 100 µM | > 100 µM | > 100 µM | > 100 µM | > 100 µM | > 100 µM | > 100 µM | > 100 µM | > 100 µM | > 100 µM | > 100 µM | > 100 µM | > 100 µM | > 100 µM | > 100 µM | > 100 µM | > 100 µM
7 | NC(=NCCN1CCCCCCC1)NO | > 100 µM | > 100 µM | > 100 µM | > 100 µM | > 100 µM | > 100 µM | > 100 µM | > 100 µM | > 100 µM | > 100 µM | > 100 µM | > 100 µM | > 100 µM | > 100 µM | > 100 µM | > 100 µM | > 100 µM | > 100 µM | > 100 µM
8 | CCOC(=O)c1[nH]cc(C)c1-c1c[nH]c2ccccc12 | > 100 µM | > 100 µM | > 100 µM | > 93 µM | > 100 µM | 90.7 µM | 67.6 µM | > 100 µM | > 100 µM | > 100 µM | > 82.7 µM | > 100 µM | > 100 µM | > 100 µM | > 82.6 µM | > 100 µM | 58.9 µM | > 80.3 µM | > 100 µM
9 | O=[N+]([O-])C(=C(N1CCCCC1)N1CCCCC1)/C(Cl)=C(\Cl)[N+](=O)[O-] | 31.4 µM | 15.5 µM | 29.2 µM | 35.1 µM | 6.28 µM | 32.9 µM | 45.7 µM | 7.72 µM | > 59.8 µM | 23.2 µM | 30 µM | 36 µM | 2.83 µM | 35.5 µM | 12.5 µM | 14 µM | 11.5 µM | 10.1 µM | 25.8 µM
10 | Cc1ccc2c(c1)C(C1Cc3cccc(C)c3C1=O)OC2=O (stereo not drawn) | > 100 µM | > 100 µM | > 100 µM | > 100 µM | > 100 µM | > 100 µM | > 100 µM | > 100 µM | > 100 µM | > 100 µM | > 100 µM | > 100 µM | > 100 µM | > 100 µM | > 100 µM | > 100 µM | > 100 µM | > 100 µM | > 100 µM
11 | COc1cc(C2S/C(=C/c3ccccc3)C(=O)N2c2cc(Cl)c(Cl)cc2Cl)cc(OC)c1OC (stereo not drawn) | > 100 µM | > 100 µM | > 100 µM | > 100 µM | > 84.4 µM | 19.1 µM | > 100 µM | > 100 µM | > 100 µM | > 100 µM | > 100 µM | > 100 µM | > 87.1 µM | > 100 µM | > 100 µM | > 100 µM | > 100 µM | > 100 µM | > 100 µM
12 | CN(C)C(=S)N/N=C(\C(=N/NC(=S)N(C)C)c1ccccn1)c1ccccn1 | 38.7 µM | 50 µM | 32.8 µM | 36.7 µM | 33.9 µM | 27.4 µM | 28.2 µM | 10.8 µM | 30.4 µM | 77.7 µM | 24.4 µM | 31.8 µM | 34.1 µM | 55.1 µM | 17.6 µM | > 53.2 µM | 24.2 µM | 22.2 µM | > 100 µM
